In patent US11390604B2 (Hoffmann-La Roche Inc., priority 2019, dated 2022) one finds IC90 data, which are given here for 22 molecules.

This assay concerns Acinetobacter baumannii ATCC 17961. The assay can be described thus: Antimicrobial susceptibility testing: 90% growth inhibitory concentration (IC90) determination. It is filed as cell-based. Particulars: ATCC17961, Acinetobacter baumannii ATCC 17961, Iso-Sensitest broth, read-out: ATCC 17961 IC90. The procedure, abridged:
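Broth microdilution in Iso-Sensitest medium, twofold series (e.g. 50 to 0.097 μM final), ~5×10^5 CFU/ml inoculum, 35±2 °C. OD600 read every 20 min over 16 h. IC90 derived from growth inhibition during logarithmic phase.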

Structures can show the parent of a compound that is named as a salt.

Regarding `COCCOCCn1cc(-c2cnc(C(=O)Nc3ccc(C(=O)N4CCN(C(=O)C5CCNCC5)CC4)c(Cl)c3)n2C)c(C(F)(F)F)n1` [Example 25, N-(3-chloro-4-(4-(piperidine-4-carbonyl)piperazine-1-carbonyl)phenyl)-5-(1-(2-(2-methoxyethoxy)ethyl)-3-(trifluoromethyl)-1H-pyrazol-4-yl)-1-methyl-1H-imidazole-2-carboxamide], the IC90 amounted to 2.01 µM.

Take `CCn1cc(-c2cnc(C(=O)Nc3ccc(C(=O)N4CCC(CCN)CC4)c(Cl)c3)n2C)c(C(F)(F)F)n1` [Example 239, N-(4-(4-(2-aminoethyl)piperidine-1-carbonyl)-3-chlorophenyl)-5-(1-ethyl-3-(trifluoromethyl)-1H-pyrazol-4-yl)-1-methyl-1H-imidazole-2-carboxamide hydrochloride]: the IC90 is 0.273 µM. Regarding `Cn1c(-c2cn(CC3CCC3)nc2C(F)(F)F)cnc1C(=O)Nc1ccc(C(=O)N2CCN(C(=O)[C@H]3C[C@H](N)C3)CC2)c(Cl)c1` [Example 276, rac-N-(4-(4-((1r,3r)-3-aminocyclobutane-1-carbonyl)piperazine-1-carbonyl)-3-chlorophenyl)-5-(1-(cyclobutylmethyl)-3-(trifluoromethyl)-1H-pyrazol-4-yl)-1-methyl-1H-imidazole-2-carboxamide hydrochloride], the 90% effect concentration (IC90) is 0.343 µM. `Cn1c(-c2cn(C3CC3)nc2C(F)(F)F)cnc1C(=O)Nc1ccc(C(=O)N2CCN(C(=O)C3CNCC(O)C3)CC2)c(Cl)c1` (stereo not shown) [Example 286, N-[3-chloro-4-[4-(5-hydroxypiperidine-3-carbonyl)piperazine-1-carbonyl]phenyl]-5-[1-cyclopropyl-3-(trifluoromethyl)pyrazol-4-yl]-1-methylimidazole-2-carboxamide;hydrochloride]: the IC90 came to 0.351 µM. In the case of `CC(C)Cn1cc(-c2cnc(C(=O)Nc3ccc(C(=O)N4CCN(C(=O)C5CCNCC5)CC4)c(Cl)c3)n2C)c(C(F)(F)F)n1` [Example 27, N-(3-chloro-4-(4-(piperidine-4-carbonyl)piperazine-1-carbonyl)phenyl)-5-(1-isobutyl-3-(trifluoromethyl)-1H-pyrazol-4-yl)-1-methyl-1H-imidazole-2-carboxamide], the IC90 was found to be 0.531 µM. In the case of `C[C@@H](N)C(=O)N[C@H]1C[C@@H](NC(=O)c2ccc(NC(=O)c3ncc(-c4cn(CC#N)nc4C(F)(F)F)n3C)cc2Cl)C1` [Example 95, N-[4-[[3-[[(2R)-2-aminopropanoyl]amino]cyclobutyl]carbamoyl]-3-chlorophenyl]-5-[1-(cyanomethyl)-3-(trifluoromethyl)pyrazol-4-yl]-1-methylimidazole-2-carboxamide;2,2,2-trifluoroacetic acid], the 90% effect concentration (IC90) turned out to be 0.422 µM. For `Cn1c(-c2cn(CC3CCC3)nc2C(F)(F)F)cnc1C(=O)Nc1ccc(C(=O)N2CCN(C(=O)N[C@H]3C[C@@H](N)C3)CC2)c(Cl)c1` [Example 260, rac-N-((1s,3s)-3-aminocyclobutyl)-4-(2-chloro-4-(5-(1-(cyclobutylmethyl)-3-(trifluoromethyl)-1H-pyrazol-4-yl)-1-methyl-1H-imidazole-2-carboxamido)benzoyl)piperazine-1-carboxamide hydrochloride], the IC90 turned out to be 0.314 µM. Take `Cn1c(-c2cn([C@@H]3CC3(F)F)nc2C(F)(F)F)cnc1C(=O)Nc1ccc(C(=O)N[C@H]2[C@@H]3CN(C(=O)N[C@H]4CNC[C@@H]4O)C[C@@H]32)c(Cl)c1` [Example 380, (1R,5S,6R)-6-(2-chloro-4-(5-(1-((R)-2,2-difluorocyclopropyl)-3-(trifluoromethyl)-1H-pyrazol-4-yl)-1-methyl-1H-imidazole-2-carboxamido)benzamido)-N-((3S,4S)-4-hydroxypyrrolidin-3-yl)-3-azabicyclo[3.1.0]hexane-3-carboxamide]: the IC90 came to 0.104 µM. Take `Cn1c(-c2cn(CC3CC3)nc2C(F)(F)F)cnc1C(=O)Nc1ccc(C(=O)N2CCN(C(=O)C3CNC3)CC2)c(Cl)c1` [Example 208, N-(4-(4-(azetidine-3-carbonyl)piperazine-1-carbonyl)-3-chlorophenyl)-5-(1-(cyclopropylmethyl)-3-(trifluoromethyl)-1H-pyrazol-4-yl)-1-methyl-1H-imidazole-2-carboxamide]: the 90% effect concentration (IC90) was 0.226 µM. For the molecule `Cn1c(-c2cn(CCC(N)=O)nc2C(F)(F)F)cnc1C(=O)Nc1ccc(C(=O)N2CCN(C(=O)C3CCNCC3)CC2)c(Cl)c1` [Example 4, 5-(1-(3-amino-3-oxopropyl)-3-(trifluoromethyl)-1H-pyrazol-4-yl)-N-(3-chloro-4-(4-(piperidine-4-carbonyl)piperazine-1-carbonyl)phenyl)-1-methyl-1H-imidazole-2-carboxamide], the concentration for an effect of 90% (IC90) was 4.06 µM. As for `Cn1c(-c2cn(CC(F)F)nc2C(F)(F)F)cnc1C(=O)Nc1ccc(S(=O)(=O)N2CCN(C(=O)CN)CC2)cc1` [Example 282, 5-(1-(2,2-difluoroethyl)-3-(trifluoromethyl)-1H-pyrazol-4-yl)-N-(4-((4-glycylpiperazin-1-yl)sulfonyl)phenyl)-1-methyl-1H-imidazole-2-carboxamide formate], the IC90 stood at 0.348 µM. For `Cn1c(-c2cn(C3CC3)nc2C(F)(F)F)cnc1C(=O)Nc1ccc(C(=O)N2CCN(C(=O)C3(O)CCNC3)CC2)c(Cl)c1` (stereo not shown) [Example 318, N-[3-chloro-4-[4-(3-hydroxypyrrolidine-3-carbonyl)piperazine-1-carbonyl]phenyl]-5-[1-cyclopropyl-3-(trifluoromethyl)pyrazol-4-yl]-1-methylimidazole-2-carboxamide;hydrochloride], the IC90 came to 0.396 µM.

Consider `Cn1c(-c2cn(CC3CC3)nc2C(F)(F)F)cnc1C(=O)Nc1ccc(C(=O)N2CCN(C(=O)C3CCNCC3)CC2)c(Cl)c1` [Example 112, N-[3-chloro-4-[4-(piperidine-4-carbonyl)piperazine-1-carbonyl]phenyl]-5-[1-(cyclopropylmethyl)-3-(trifluoromethyl)pyrazol-4-yl]-1-methylimidazole-2-carboxamide;hydrochloride], for which the IC90 was 0.274 µM. As for `C#CCn1cc(-c2cnc(C(=O)Nc3ccc(C(=O)N4CCN(C(=O)N[C@H]5CC[C@H](N)C5)CC4)c(Cl)c3)n2C)c(C(F)(F)F)n1` [Example 83, N-[(1S,3S)-3-aminocyclopentyl]-4-[2-chloro-4-[[1-methyl-5-[1-prop-2-ynyl-3-(trifluoromethyl)pyrazol-4-yl]imidazole-2-carbonyl]amino]benzoyl]piperazine-1-carboxamide], the IC90 was determined as 0.288 µM. For the molecule `CCn1cc(-c2cnc(C(=O)Nc3ccc(C(=O)N4CCN(C(=O)C5CCNCC5)CC4)c(Br)c3)n2C)c(C(F)(F)F)n1` [Example 374, N-(3-bromo-4-(4-(piperidine-4-carbonyl)piperazine-1-carbonyl)phenyl)-5-(1-ethyl-3-(trifluoromethyl)-1H-pyrazol-4-yl)-1-methyl-1H-imidazole-2-carboxamide hydrochloride], the 90% effect concentration (IC90) amounted to 0.495 µM. The value for `Cn1c(-c2cn(C3CC3)nc2C(F)(F)F)cnc1C(=O)Nc1ccc(C(=O)N2CCN(C(=O)N3CC(N)C3)CC2)c(Cl)c1` [Example 216, N-(4-(4-(3-aminoazetidine-1-carbonyl)piperazine-1-carbonyl)-3-chlorophenyl)-5-(1-cyclopropyl-3-(trifluoromethyl)-1H-pyrazol-4-yl)-1-methyl-1H-imidazole-2-carboxamide formate] was 0.243 µM. `CC(C#N)n1cc(-c2cnc(C(=O)Nc3ccc(C(=O)N4CCN(C(=O)C5CCNCC5)CC4)c(Cl)c3)n2C)c(C(F)(F)F)n1` (stereo not shown) [Example 117, N-[3-chloro-4-[4-(piperidine-4-carbonyl)piperazine-1-carbonyl]phenyl]-5-[1-(1-cyanoethyl)-3-(trifluoromethyl)pyrazol-4-yl]-1-methylimidazole-2-carboxamide;formic acid]: the IC90 turned out to be 0.427 µM. For the molecule `Cn1c(-c2cn(C3CC3)nc2C(F)(F)F)cnc1C(=O)Nc1ccc(C(=O)N2CCN(C(=O)[C@@H]3CCCNC3)CC2)c(Cl)c1` [Example 223, (R)-N-(3-chloro-4-(4-(piperidine-3-carbonyl)piperazine-1-carbonyl)phenyl)-5-(1-cyclopropyl-3-(trifluoromethyl)-1H-pyrazol-4-yl)-1-methyl-1H-imidazole-2-carboxamide hydrochloride], the IC90 stood at 0.252 µM.

In the case of `CN(CCCCN)C(=O)c1ccc(NC(=O)c2ncc(-c3cn(C4CC4)nc3C(F)(F)F)n2C)cc1Cl` [Example 190, N-(4-((4-aminobutyl)(methyl)carbamoyl)-3-chlorophenyl)-5-(1-cyclopropyl-3-(trifluoromethyl)-1H-pyrazol-4-yl)-1-methyl-1H-imidazole-2-carboxamide hydrochloride], the concentration for an effect of 90% (IC90) is 0.173 µM.

As for `Cn1c(-c2cn(CC3CC3(F)F)nc2C(F)(F)F)cnc1C(=O)Nc1ccc(C(=O)N2CCN(C(=O)C3CCNCC3)CC2)c(Cl)c1` (stereo not shown) [Example 110, N-[3-chloro-4-[4-(piperidine-4-carbonyl)piperazine-1-carbonyl]phenyl]-5-[1-[(2,2-difluorocyclopropyl)methyl]-3-(trifluoromethyl)pyrazol-4-yl]-1-methylimidazole-2-carboxamide;hydrochloride], the IC90 was determined as 0.26 µM. For `CCC#CCn1cc(-c2cnc(C(=O)Nc3ccc(C(=O)N4CCN(C(=O)C5CCNCC5)CC4)c(Cl)c3)n2C)c(C(F)(F)F)n1` [Example 19, N-(3-chloro-4-(4-(piperidine-4-carbonyl)piperazine-1-carbonyl)phenyl)-1-methyl-5-(1-(pent-2-yn-1-yl)-3-(trifluoromethyl)-1H-pyrazol-4-yl)-1H-imidazole-2-carboxamide hydrochloride], the IC90 was 0.172 µM. Consider `CN(C)CCN(C)C1CCN(C(=O)c2ccc(NC(=O)c3ncc(-c4cn(C5CC5)nc4C(F)(F)F)n3C)cc2Cl)CC1` [Example 357, N-(3-chloro-4-(4-((2-(dimethylamino)ethyl)(methyl)amino)piperidine-1-carbonyl)phenyl)-5-(1-cyclopropyl-3-(trifluoromethyl)-1H-pyrazol-4-yl)-1-methyl-1H-imidazole-2-carboxamide], for which the IC90 came out at 0.466 µM.
